Molecular target: T1, Protein Kinase A catalytic subunit (PKA) (Bos taurus, UniProt P00517)
T1 construct: gene PRKACA; catalytic subunit (from bovine heart, Merck)
Assay: fluorescence polarization competition with BODIPY FL ATP-γ-S
Assay type: binding

IC50: ~1130 µM
SMILES: CC1CNCCN1S(=O)(=O)c1cccc2cnccc12 (stereo not shown) [H7]

Source: paper PMC7191558, “Use of BODIPY-Labeled ATP Analogues in the Development and Validation of a Fluorescence Polarization-Based Assay for Screening of Kinase Inhibitors” (ACS Omega, 2020)
